Assay results taken from US20210379153A1, “COMBINATION THERAPIES COMPRISING SIRP ALPHA-BASED CHIMERIC PROTEINS” (Shattuck Labs, Inc., priority 2018, published 2021).
Entries after “also recorded” stand apart in the source; their conditions may differ.

Columns and labels:
[1] = Repeat-dose safety and activity study in cynomolgus macaques; type: in vivo
Protocol: FIG. 21 is a graph showing cynomolgus macaques that were treated with vehicle, or 0.1, 1, 10, and 40 mg/kg of SIRPα-Fc-CD40L. Blood chemistry analysis assessed peripheral erythrocyte counts, hemoglobin levels, and hematocrit. In addition, the fold-change in lymphocyte count from pre-dose to 24 hours post-dose is shown.
The experiments of this example tested the safety and activity of the human SIRPα-Fc-CD40L chimeric protein following repeat doses in cynomolgus macaques. Briefly, naïve cynomolgus macaques were administered the human SIRPα-Fc-CD40L chimeric protein by intravenous infusion every week, for five consecutive weeks, at doses of 0.1, 1, 10 and 40 mg/kg. Standard hematology and clinical chemistry parameters were collected before and after each dose.
Receptor occupancy was evaluated on circulating CD40+ lymphocytes.

[2] = test system: IFNα1, IFNβ1, CD80 and CD86 expression in macrophages; experiment: qRT-PCR of macrophages sorted from macrophage:Toledo lymphoma co-cultures; type: cell-based, human; parameters: macrophage activation and type I interferon gene expression: dose or concentration left out as unconfirmed
Protocol: FIG. 8D: Macrophage:Toledo lymphoma co-cultures were harvested 2 hours into phagocytosis assays in the presence of rituximab ([…]), SIRPα-Fc-CD40L ([…]), or the combination of both agents. Macrophages were isolated by CD11b+ FACS, RNA was prepared, cDNA synthesized, and gene expression (IFNa1, IFNb1, CD80, and CD86) assessed by qRT-PCR. Fold change was calculated using DDCT and values obtained from the housekeeping gene ACTB, and the corresponding values from untreated samples. […] After 2 hours, co-cultures were isolated from tissue culture vessels and were stained with a fluorescently conjugated CD11b antibody to discriminate macrophages. Cells were then assessed by flow cytometry for the co-localization of fluorescent signal from both cells types. Identical assays were set up where macrophages were pre-incubated for 1 hour with 20 μg/mL of a commercially available Fc block cocktail or with 20 μg/mL of a CD40 blocking antibody or with 5 μg/mL of a calreticulin blocking peptide. FIG. 8G: RAW 264.7-Lucia ISG cells were cultured with A20 lymphoma cells in the presence of […] of mSIRPα-Fc-CD40L, recombinant Fc-mCD40L, mSIRPα-Fc, or their combination, 1 mg/mL anti-mCD20, or the combination of mSIRPα-Fc-CD40L and anti-mCD20. After 24-hours type I interferon induced luminescence was assessed using a luminometer. The maximum luminescence (RLU) from each experiment was set to 1, and all other samples were normalized accordingly. Values from repeat experiments are shown.
RNA was prepared from macrophages isolated using fluorescent activated cell sorting (FACS) from SIRPα-Fc-CD40L/Rituximab treated co-cultures macrophages and Toledo lymphoma cells. The RNA was assessed by qRT-PCR for expression of IFNα1 and IFNβ1, and the macrophage activation markers CD80 and CD86.

Raji cells = experiment: In vitro phagocytosis of Raji cells by human macrophages; type: cell-based
From the text: To this end, in vitro tumor cell phagocytosis assays were established to determine whether SIRPα-Fc-CD40L enhanced macrophage-mediated phagocytosis of various tumor cell lines both alone and in combination with anti-CD20 antibodies.
Initially, a variety of CD20+ lymphoma (Toledo, Raji, and Ramos) cell lines were co-cultured with human monocyte-derived macrophages to assay the amount of phagocytosis promoted by the SIRPα(CD172a)-Fc-CD40L chimeric protein in the presence or absence of an anti-CD20 antibody.
Such synergistic effect was unexpected.
These experiments used an in vitro phagocytosis assay with human donor macrophages and several human tumor cell lines (e.g., Raji cells, a human Burkitt lymphoma tumor cell line), to test whether SIRPα-Fc-CD40L's blockade of the tumor cell antigen CD47 (“don't eat me signal”) could stimulate phagocytosis, and potentially synergize with the anti-CD20 antibody, Rituximab. FIG. 10A is a cartoon illustrating steps used in this assay.
Co-cultures of tagged Raji cells and macrophages were treated with a variety of chimeric protein and antibody combinations, including control IgGs with an anti-CD20 antibody (Rituximab), an anti-CD47 antibody (CC9, Celgene), the SIRPα(CD172a)-Fc-CD40L chimeric protein, and/or pembrolizumab (an anti-PD-1 antibody; […]/MK 3475, Merck). […] Such synergistic effect was unexpected.

[3] = test system: HCC1954 (high Her2-expressing breast cancer cell line); experiment: Macrophage engulfment of HCC1954 cells; type: cell-based, human; conditions: combination with anti-Her2 antibody (trastuzumab); vs low Her2-expressing tumor cells
splenic dendritic cells = experiment: In vivo splenic dendritic cell activation; parameters: species or system mice; conditions: mouse
Protocol: For each panel, the samples are (left to right): untreated, sheep RBCs, αCD47 (MIAP301), αSIRPα (P84), mSIRPα-Fc-CD40L, mSIRPα-Fc-CD40L (24 Hrs), and αCD47 (MIAP301) (24 hrs). FIG. 9B is a quantitation of in vivo dendritic cell activation corresponding to FIG. 9A. Shown is the absolute percent of CD4+ and CD8+ dendritic cells; also gated on CD11c and DC1R2. In FIG. 9B, for each panel, the samples are (left to right): untreated, sheep RBCs, αCD47 (MIAP301), αSIRPα (P84), SIRPα-Fc-CD40L (150 μg), SIRPα-Fc-CD40L (300 μg), SIRPα-Fc-CD40L (300 μg) (24 Hrs), and αCD47 (MIAP301) (24 hrs).
An in vivo assay to examine SIRPα/CD47 function in mice was describe in Yi et al., “Splenic Dendritic Cells Survey Red Blood Cells for Missing Self-CD47 to Trigger Adaptive Immune Responses. Immunity. 2015; 43(4):764-75) (the contents of which is incorporated by reference in its entirety). This assay detects the activation status of splenic dendritic cells in response to SIRPα/CD47 inhibitors or to infused sheep red blood cells (RBC).
After 6 or 24 hours, mice were euthanized and their spleens excised, dissociated, and assessed by flow cytometry for populations of activated CD4+ dendritic cells (DCs) (FIG. 9A, left panel) or CD8+ dendritic cells (FIG. 9A, right panel); both populations of dendritic cells were also positive for MHC II (I-Ab), CD11c, and DC1R2.

SIRPα-Fc-CD40L: generic name of the SIRPαECD-Fc-CD40LECD chimeric protein; human or murine version according to the experiment
total number of lymphocytes (episodic fluctuation) ([1]; before and after each dose): did not depart from the upper and lower range of normal
number of CD40+ cells in the peripheral blood ([1]; cynomolgus monkey, in vivo): dose-dependent decrease
serum cytokines/chemokines (CCL2, CXCL9, CXCL10, IL-6, IL-15, IL-17A, IL-23) ([1]; following each infusion): dose-dependent increases
induction of type I interferon genes ([2]; combination with rituximab): enhanced
macrophage activation and type I interferon gene expression ([2]; monotherapy, 2 hours): induced macrophage activation and the expression of type I interferon genes
synergy in phagocytosis with anti-CD20 antibody (Raji cells; Fc receptors on the macrophages pre-blocked): synergy was lost
phagocytosis activity by flow cytometry (Raji cells; combination with an anti-CD20 antibody, among treatment groups): greatest phagocytosis activity
macrophage engulfment (phagocytosis) of tumor cells (Raji cells; combination with anti-CD20 antibody (Rituximab), listed as SIRPα(CD172a)-Fc-CD40L): most effective; also recorded: effective
rate of tumor cells engulfed by macrophages (phagocytosis index) (Raji cells; combination with anti-CD20 antibody vs chimeric protein-alone and antibody-alone treatments): greater than the sum
stimulation of phagocytosis (Raji cells; combination with anti-CD20 antibody, CD40 pre-blocked): remained the same
macrophage engulfment of tumor cells [3]: more effective
proportion of overall splenic DCs vs antibody treated groups (splenic dendritic cells): higher proportion of overall splenic DCs
